# In US10864210B2, “Composition and combined medication method for treating enterovirus infection” (priority 2016, dated 2020):
# What was measured:
# Type in all cases: cell-based, Enterovirus 71
# EV71 [1] = test: Evaluation experiment for compounds: inhibition of EV71-induced CPE in RD cells (CellTiter-Glo); conditions: single compound, 2-fold dilutions
# Protocol: Itraconazole purchased from Sigma-Aldrich is dissolved in DMSO to a final concentration of 10 mM; suramin purchased from Bayer is dissolved in a medium containing 2% FBS to a final concentration of 50 mM; favipiravir purchased from Chembest is dissolved in DMSO to a final concentration of 400 mM; rupintrivir purchased from Santa Cruz is dissolved in DMSO to a final concentration of 2 mM; and GW5074 purchased from Sigma is dissolved in DMSO to a final concentration of 10 mM. To evaluate the inhibition of EV71-induced CPE activity by five compounds, the inventors perform dose dependent experiments.
# The raw data are input into an Excel sheet to calculate the signal-to-background ratio (S/B), the signal-to-noise ratio (S/N), Z factor, and the inhibition rate of the test compound against the virus. […] The antiviral activity of the compound CPE inhibition rate=(μcpd−μv)/(μc−μv)×100%, wherein μcpd represents the average signal intensity of the test compound; and the effect of the compound on the cell, cell survival rate=μcpd/μc×100%. The half maximum effect concentration (EC50) is a concentration that causes a 50% maximum effect. The half-cytotoxic concentration (CC50) refers to a concentration of the medicament that causes 50% cytotoxicity, which is expressed in this experiment as a 50% reduction in the fluorescence intensity of the experimental group compared with the control group.
# (A) 2-fold dilution of itraconazole, rupintrivir, favipiravir, suramin, and GW5074 were separately added to RD cells, and virus or medium was added and cultured for 96 hours. The cell viability was measured by CellTiter-Glo kit. The inhibitory effects of […] compounds on EV71 and the toxic effects on cells were examined. (B) Virus and 2-fold dilution of itraconazole, rupintrivir, favipiravir, suramin, and GW5074 were separately added into RD cells. After 48 hours of culture, the supernatant was collected and the viral titer was determined by TCID50 method. The results were processed using Graphpad Prism5. The data in the figure were obtained from two independent parallel experiments, and the error bars represent the standard deviation of the two parallel experiments.
# [2] = test system: EV71 containing 3D protein mutation; test: Mutant virus resistance experiment based on cytopathic effect in Vero cells; conditions: CPE-based
# Protocol: To determine the resistance of the selected mutant virus and recombinant virus to the compound, the inventors conduct experiments based on cytopathic effects and viral titer reduction experiments. […] EV71 G082 strain is served as a control.
# The supernatant from the 16th passage culture was collected and sequenced. EV71 containing 3D protein mutation was constructed by reverse genetics system. The viral titer was determined by plaque formation assay, the virus resistance to favipiravir was detected by viral titer reduction experiment. The experimental method was the same as the compound verification experiment. (B) The effects of itraconazole, rupintrivir, suramin and GW5074 on a virus containing 3D protein mutation were determined using an experiment based on cytopathic effect. The results were processed using Graphpad Prism5. The data in the figure were obtained from two independent parallel experiments, and the error bars represent the standard deviation of the two parallel experiments.
# [3] = test system: EV71 having amino acid residue mutation at position 121 in the 3D protein; test: Favipiravir resistance screening and viral titer reduction experiment in Vero cells; conditions: viral titer reduction
# Protocol: (§1) RD cells are seeded in a 12-well plate with 3×10^5 cells/well, cultured overnight at 37° C. for 24 hours. Then EV71 virus solution with MOI=0.1 and 2-fold dilution of itraconazole, rupintrivir, favipiravir, suramin and GW5074 are added and cultured at 37° C. for 48 h. The supernatant is collected, frozen in a −80° C. refrigerator, and then determined for viral titer. To determine the resistance of the passaged virus to favipiravir, the inventors inoculate Vero cells in a 12-well plate, 3×10^5 cells/well and culture overnight at 37° C. After 24 hours, EV71 virus solution with MOI=0.1 is added and 300 μM and 600 μM favipiravir are separately added. After cultured at 37° C. for 48 hours, the supernatant is collected and frozen in a −80° C. refrigerator, and then the viral titer is measured.
# The present inventors conduct a passage experiment to screen a favipiravir resistant strain. 3×10^5 Vero cells are seeded in a 12-well plate, cultured overnight at 37° C. […] After 16 continuous passages, the titer of the virus in the supernatant, the resistance to the compound, and sequencing are determined. […]
# The supernatant from the 16th passage culture was collected and sequenced. […] The viral titer was determined by plaque formation assay, the virus resistance to favipiravir was detected by viral titer reduction experiment. […]
# EV71 [4] = test: Viral titer reduction experiment (single compound)
# Protocol: as §1
# EV71, itraconazole, and 0.5 μM or 1 μM of rupintrivir were simultaneously added to Vero cells, the virus was subcultured, and the supernatant was collected.
Structure (SMILES),inhibition of EV71 infection of cells (EV71 [1]),cross-resistance of favipiravir-resistant mutant virus compared with wild type virus (G082) [2],resistance of EV71 with position 121 3D protein mutation to the compound [3],removal of viruses in the cell culture by single compound (EV71 [4])
O=C1Nc2ccc(I)cc2/C1=C/c1cc(Br)c(O)c(Br)c1 [GW5074],effective in inhibiting EV71 infection of cells in a dose-dependent manner,no cross-resistance was found,,
NC(=O)c1nc(F)cnc1O [favipiravir],effective in inhibiting EV71 infection of cells in a dose-dependent manner,,resistant,
CCC(C)n1ncn(-c2ccc(N3CCN(c4ccc(OCC5COC(Cn6cncn6)(c6ccc(Cl)cc6Cl)O5)cc4)CC3)cc2)c1=O (centres unmarked) [itraconazole],effective in inhibiting EV71 infection of cells in a dose-dependent manner,no cross-resistance was found,,could not remove all the viruses in the cell culture
CCOC(=O)/C=C/[C@H](C[C@@H]1CCNC1=O)NC(=O)[C@@H](CC(=O)[C@@H](NC(=O)c1cc(C)on1)C(C)C)Cc1ccc(F)cc1 [rupintrivir],effective in inhibiting EV71 infection of cells in a dose-dependent manner,no cross-resistance was found,,
Cc1ccc(C(=O)Nc2ccc(S(=O)(=O)O)c3cc(S(=O)(=O)O)cc(S(=O)(=O)O)c23)cc1NC(=O)c1cccc(NC(=O)Nc2cccc(C(=O)Nc3cc(C(=O)Nc4ccc(S(=O)(=O)O)c5cc(S(=O)(=O)O)cc(S(=O)(=O)O)c45)ccc3C)c2)c1 [suramin],effective in inhibiting EV71 infection of cells in a dose-dependent manner,no cross-resistance was found,,
